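Protocol summary: plate cells (96-well), add compound at 5 concentrations, incubate 48 h, interpolate endpoints linearly. At the GI50, growth is halved. TGI: concentration producing complete growth inhibition.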
Assays:
Assay in all cases: growth of human tumour cells (NCI), 48 h
UACC-62 melanoma = test system: UACC-62 melanoma
T-47D breast = test system: T-47D breast
MDA-MB-435 = test system: MDA-MB-435
OVCAR-8 ovarian = test system: OVCAR-8 ovarian
IGROV1 ovarian = test system: IGROV1 ovarian
TK-10 renal = test system: TK-10 renal
ACHN renal = test system: ACHN renal
SF-268 CNS = test system: SF-268 CNS
OVCAR-3 ovarian = test system: OVCAR-3 ovarian
SR leukemia = test system: SR leukemia

Row | SMILES | TGI (UACC-62 melanoma) [µM] | TGI (T-47D breast) [µM] | TGI (MDA-MB-435) [µM] | TGI (OVCAR-8 ovarian) [µM] | TGI (IGROV1 ovarian) [µM] | TGI (TK-10 renal) [µM] | TGI (ACHN renal) [µM] | TGI (SF-268 CNS) [µM] | TGI (OVCAR-3 ovarian) [µM] | GI50 (UACC-62 melanoma) [µM] | GI50 (T-47D breast) [nM] | GI50 (MDA-MB-435) [µM] | GI50 (SR leukemia) [nM] | TGI (SR leukemia) [µM] | GI50 (OVCAR-8 ovarian) [µM] | GI50 (IGROV1 ovarian) [µM] | GI50 (ACHN renal) [µM] | GI50 (SF-268 CNS) [µM] | GI50 (OVCAR-3 ovarian) [µM] | GI50 (TK-10 renal) [µM]
1 | COc1cc2oc3c(c(=O)c2c(O)c1/C=C/C(C)C)C(C=C(C)C)Oc1cc(O)ccc1-3 (stereo not given) | 32.3 | 31 | 30.8 | 30.8 | 27.7 | 31.5 | 29.4 | 36.8 | 28.4 | – | – | – | – | – | – | – | – | – | – | –
2 | Nc1nc(N)c2nc3c(nc2n1)CCCCCCCCCC3 | > 100 | > 100 | > 100 | > 100 | > 100 | – | > 100 | > 100 | > 100 | 1.39 | > 100000 | 0.577 | 5030 | > 100 | 1.99 | 0.421 | 2.98 | 2.1 | 6.15 | –
3 | CCC1(CN(C)C)CC/C(=C\c2ccc(OC)c(OC)c2)C1=O (stereo not given) | > 100 | – | – | > 100 | > 100 | > 100 | > 100 | > 100 | > 100 | – | – | – | – | – | – | – | – | – | – | –
4 | CC1SC2(CCCCC2)N(NC(=O)c2[nH]c3ccc(Br)cc3c2-c2ccccc2)C1=O (stereo not given) | > 100 | > 100 | > 100 | 53.8 | 28.4 | > 100 | > 100 | > 100 | 20.9 | 9.66 | 20500 | 30.1 | – | – | 17 | 4.02 | 61.3 | 75.6 | 3.24 | 26.2
5 | O=c1c2cc3c(cc2c2cccc4c2n1CCC4)OCO3 | > 100 | – | – | > 100 | > 100 | > 100 | > 100 | – | > 100 | – | – | – | – | 91.3 | – | – | – | – | – | –
6 | COc1cc2ccnc3c(=C(SC)SC)c(=O)c(c1OC)c23 | 37.9 | – | – | 22.7 | 47.5 | 27.1 | 26 | 60.3 | 28.4 | – | – | – | – | – | – | – | – | – | – | –
7 | O=c1cccc(-c2cccc(=O)[nH]2)[nH]1 | > 100 | – | – | > 100 | > 100 | > 100 | > 100 | – | > 100 | – | – | – | – | – | – | – | – | – | – | –
8 | N#Cc1cccc(C=NC23CC4CC(CC(C4)C2)C3)c1 | > 100 | – | – | > 100 | > 100 | > 100 | > 100 | > 100 | > 100 | – | – | – | – | > 100 | – | – | – | – | – | –
9 | COc1ccc(-c2csc(NC(=O)CN3CCN(c4cc5c(cc4F)c(=O)c(C(=O)O)cn5C4CC4)CC3)n2)cc1 | > 100 | – | > 100 | > 100 | > 100 | 22.9 | > 100 | > 100 | > 100 | 4.18 | – | 3.39 | 2960 | > 100 | 3.2 | 7 | 3.25 | 4.28 | 3.86 | 4.62
10 | CCCCOC1OC(COC(=O)C(C)C)C(OC(=O)C(C)C)C(O)C1OC1OC(C)C(OC(=O)CCC)C(OC(=O)C(C)C)C1O (stereo not given) | 24.8 | 35.3 | 27.6 | 37.8 | 58.5 | 25.9 | 28.1 | 29 | 24.2 | 12.3 | 15000 | 14.5 | – | – | 19.6 | 22.7 | 14.9 | 12.2 | 11.9 | 13.2
11 | OCCN(CCO)c1cccc(N(CCO)CCO)n1 | > 100 | – | – | > 100 | – | > 100 | > 100 | > 100 | > 100 | – | – | – | – | > 100 | – | – | – | – | – | –
12 | CCCCNc1ccc(Nc2ccccc2)cc1 | > 100 | 47 | 24.3 | – | 27.2 | 56.3 | > 100 | > 100 | > 100 | 8.2 | 1650 | 3.29 | – | – | – | 5.61 | 16.7 | 13.3 | 3.79 | 4.27
13 | COc1cccc(SSc2cccc(OC)c2C(=O)O)c1C(=O)O | > 100 | – | – | > 100 | > 100 | > 100 | > 100 | > 100 | > 100 | – | – | – | – | > 100 | – | – | – | – | – | –
14 | O=C1CC/C(=C/COc2cc(=O)oc3ccccc23)O1 | 25.1 | 19.8 | 22.1 | 27.7 | 19.5 | 10.5 | 2.55 | 51.7 | 21.1 | 12.2 | 2270 | 7.11 | – | – | 11.7 | 5.05 | 1.29 | 16.2 | 5.41 | 2.73
15 | Cc1ccc(S(=O)(=O)N/N=C/C(C)C)cc1 | > 100 | – | – | > 100 | > 100 | > 100 | > 100 | > 100 | > 100 | – | – | – | – | – | – | – | – | – | – | –
16 | Cc1ccc(-n2nnnc2-c2cnc(N3CCOCC3)nc2-c2cccc(C(F)(F)F)c2)cc1 | 25.2 | > 15.6 | – | > 22.5 | > 10.7 | 4.56 | > 14.7 | 29.4 | 2.81 | 1.73 | 2310 | – | 1130 | 3.17 | 2.83 | 1.63 | 4 | 3 | 1.05 | 1.54
17 | Cc1cccc2c3c(sc12)C(c1ccc(F)cc1)C(C#N)=C(N)O3 (stereo not given) | 11.7 | – | 0.0514 | 14.2 | 11.2 | 23 | 13.2 | 17.5 | 1.85 | 0.0433 | – | 0.0222 | 46.2 | 20.2 | 0.128 | 0.0744 | 0.0658 | 0.35 | 0.0401 | 5.51
18 | CC(=O)NC(C=O)C(O[C@H](C)C(=O)NC(C)C(=O)NC(CCC(N)=O)C(=O)OCc1ccccc1)C(O)C(O)COC(=O)CCNc1c2ccccc2nc2cccc([N+](=O)[O-])c12 (stereo not given in full) | 10.5 | – | – | 18.7 | > 100 | 53.6 | – | 5.11 | 4.01 | – | – | – | – | 2.69 | – | – | – | – | – | –

Source: PubChem BioAssay (NCI)
